Measured values: patent US20130131008A1, “LIPOPHILIC MONOPHOSPHORYLATED DERIVATIVES AND NANOPARTICLES” (BOARD OF REGENTS, THE UNIVERSITY OF TEXAS SYSTEM, priority 2011, published 2013)

How the values were obtained:
[1] = Solubility observations (DMSO, water); assay type: physicochemical; details: for the in vitro cytotoxicity assay
[2] = system: TC-1 cells; assay: In vitro cytotoxicity assay (MTT), 48 h; assay type: cell-based; details: 48 h incubation
Description: (§1) Human leukemia cell line CCRF-CEM (CCL-119), human pancreatic cancer cell lines PANC-1 (CRL-1469), MIA PaCa-2 (CRL-1420), and BxPC-3 (CRL-1687), human breast adenocarcinoma cell line MCF-7 (HTB-22), and mouse lung cancer cell line TC-1 (CRL-2785) were from the American Type Culture Collection (Rockville, Md.). CCRF-CEM-AraC-8C cells (hENT1 deficient) and CCRF-CEM/dCK^−/− cells (dCK deficient) were kindly provided by Dr. Buddy Ullmann (Oregon Health & Science University, Portland, Oreg.) and Dr. Margaret Black (Washington State University, Pullman, Wash.), respectively. L1210 wt and L1210 10K were kindly supplied by Dr. Lars Petter Jordheim (Université Claude Bernard Lyon I, Lyon, France). TC-1-GR cells were previously developed in our lab. CCRF-CEM, CCRF-CEM-AraC-8C, CCRF-CEM/dCK^−/−, L1210 wt, L1210 10K, TC-1, and TC-1-GR cells were cultured in RPMI 1640 medium. MCF-7 and PANC-1 cells were cultured in Dulbecco's modified Eagle medium (DMEM), MIA PaCa-2 cells were cultured in DMEM medium with 2.5% horse serum. All media were supplemented with 10% fetal bovine serum (FBS), 100 U/mL of penicillin, and 100 μg/mL of streptomycin (all from Invitrogen, Carlsbad, Calif.).
(§2) Cells (5,000/well) were seeded in 96-well plates. After overnight incubation, they were treated with various concentrations of gemcitabine HCl, gemcitabine derivatives, or gemcitabine derivatives in nanoparticles at 37° C., 5% CO2. TC-1 and TC-1-GR cells were incubated for 48 h. CCRF-CEM, CCRF-CEM-AraC-8C, CCRF-CEM/dCK^−/−, L1210 wt, L1210 10K, and MCF-7 cells were incubated for 72 h, and MIA PaCa-2 and PANC-1 for 96 h. Gemcitabine HCl was dissolved in phosphate-buffered saline (PBS), and gemcitabine derivatives were dissolved in dimethyl sulfoxide (DMSO). […] The number of viable cells after the incubation was determined using an MTT assay. Briefly, 3-(4,5-dimethylthiazol-2-yl)-2,5-diphenyltetrazolium bromide (20 μl, 5 mg/mL) was added in each well and incubated for 3 h. Formazan crystals were solubilized with acidified isopropanol (150 μl) (for CCRF-CEM, CCRF-CEM-AraC-8C, CCRF-CEM/dCK^−/−, L1210 wt, and L1210 10K cells) or DMSO (150 μl) (for TC-1, TC-1-GR, MCF-7, PANC-1, and MIA PaCa-2). Absorbance was measured using a BioTek Synergy™ HT Multi-Mode Microplate Reader (BioTek Instruments, Winooski, Vt.) at 570 nm and 630 nm. The fraction of affected (dead) cells (Fa) and the fraction of unaffected (live) cells (Fu) at every dose were calculated, and the Log(Fa/Fu) values were plotted against the Log(concentration of gemcitabine). IC50 was the dose at Log(Fa/Fu)=0, See e.g., Chou, T. C. & Talalay, P., 1984, Adv. Enzyme Regul. 22:27-55. The experiment was repeated at least three times.

[3] = system: PANC-1 cells; assay: In vitro cytotoxicity assay (MTT), 96 h, RRM2 over-expressing cells; assay type: cell-based, human; details: for IC50: MTT, 96 h incubation, RRM2 over-expressing
Description: as §1, §2

[4] = system: CCRF-CEM cells; assay: In vitro cytotoxicity assay (MTT), 72 h; assay type: cell-based, human; details: 72 h incubation
Description: as §1, §2

[5] = system: CCRF-CEM-AraC-8C cells; assay: In vitro cytotoxicity assay (MTT), 72 h, hENT1 deficient cells; assay type: cell-based, human; details: for IC50: MTT, 72 h incubation, hENT1 deficient
Description: as §1, §2

[6] = system: TC-1-GR cells; assay: cells; assay type: cell-based; details: for IC50: MTT, 48 h incubation, RRM1 over-expressing
Description: as §1, §2

[7] = system: MIA PaCa-2 cells; assay: In vitro cytotoxicity assay (MTT), 96 h; assay type: cell-based, human; details: 96 h incubation
Description: as §1, §2

[8] = system: B16-F10 melanoma tumor; assay: Antitumor activity of GemC18/PEG-C18 micelles in mice with B16-F10 tumors (Example 20); assay type: in vivo, mouse; details: C57BL/6 mice, tail vein injection, 0.283 mg GemHCl or molar equivalent GemC18; 2 doses (micelles 3 doses), 3 days apart
Procedure: The in vivo antitumor activity of GemC18/PEG-C18 micelles was evaluated in C57BL/6 mice with subcutaneously inoculated B16-F10 cells (5.0×10^5/mouse) in the right flank. Treatments were given 6 days after tumor cell inoculation by tail vein injection with normal saline, Gemcitabine HCl (GemHCl) solution, GemC18 solution, blank PEG-C18 micelles, or GemC18/PEG-C18 micelles. The dose was 0.283 mg of GemHCl or molar equivalent amount of GemC18. All groups received a second dose three days after the first dose, while the GemC18/PEG-C18 micelle group also received a third dose 3 days after the second dose. Tumor sizes were measured with calipers in two perpendicular diameters every day and reported as tumor volume (V=½ [a×b^2], a=longer diameter, b=shorter diameter).

[9] = system: CCRF-CEM/dCK−/− cells; assay: In vitro cytotoxicity assay (MTT), 72 h, dCK deficient cells; assay type: cell-based, human; details: MTT, 72 h incubation; dCK deficient
Description: as §1
Cells (5,000/well) were seeded in 96-well plates. After overnight incubation, they were treated with various concentrations of gemcitabine HCl, gemcitabine derivatives, or gemcitabine derivatives in nanoparticles at 37° C., 5% CO2. TC-1 and TC-1-GR cells were incubated for 48 h. CCRF-CEM, CCRF-CEM-AraC-8C, CCRF-CEM/dCK^−/−, L1210 wt, L1210 10K, and MCF-7 cells were incubated for 72 h, and MIA PaCa-2 and PANC-1 for 96 h. […] The number of viable cells after the incubation was determined using an MTT assay. […] Absorbance was measured using a BioTek Synergy™ HT Multi-Mode Microplate Reader (BioTek Instruments, Winooski, Vt.) at 570 nm and 630 nm. The fraction of affected (dead) cells (Fa) and the fraction of unaffected (live) cells (Fu) at every dose were calculated, and the Log(Fa/Fu) values were plotted against the Log(concentration of gemcitabine). […]

[10] = IC50 of gemcitabine HCl divided by that of the derivatives or derivatives in nanoparticles

| Structure (SMILES) | solubility in DMSO [1] | IC50 [2] [µM] | IC50 [3] [µM] | IC50 [4] [µM] | IC50 [5] [µM] | IC50 [6] [µM] | IC50 [7] [µM] | Ratio of IC50 in PANC-1 to that in MIA PaCa-2 [3] | B16-F10 tumor growth (tumor volume) [8] | Ratio of IC50 in CCRF-CEM-AraC-8C to that in CCRF-CEM [5] | Ratio of IC50 values in CEM-AraC-8C cells [5, 10] | Ratio of IC50 values in TC-1-GR cells [6, 10] | IC50 [9] [µM] |
| --- | --- | --- | --- | --- | --- | --- | --- | --- | --- | --- | --- | --- | --- |
| CCCCCCCCCCCCCCCCCC(=O)Nc1ccn([C@@H]2O[C@H](COP(=O)(O)O)C(O)C2(F)F)c(=O)n1 (stereo in doubt) [Compound 13, 4-N-Octadecanoyl-2′-2′-difluoro-2′-deoxycytidine 5′-sodiumphosphate] | not sufficiently solubilized in DMSO | – | – | – | – | – | – | – | – | – | – | – | – |
| CCCCCCCCCCCCCCCCCCOP(=O)(O)OC[C@H]1O[C@@H](n2ccc(NC(C)=O)nc2=O)C(F)(F)[C@@H]1O [Compound 9, 4-N-acetyl-2′-2′-difluoro-2′-deoxycytidine-5′-octadecylphosphate] | – | 0.211 ± 0.085 | 38.5 ± 5.7 | 0.0581 ± 0.0185 | 0.575 ± 0.0971 | 9.3 ± 2.5 | 0.205 ± 0.0395 | – | – | – | – | – | – |
| CCCCCCCCCCCCCCCCCC(=O)Nc1ccn([C@@H]2OC(CO)C(O)C2(F)F)c(=O)n1 (stereo partly shown) [GemC18, 4-N-stearoyl gemcitabine] | – | 0.132 ± 0.0172 | 6 ± 1.1 | 0.0194 ± 0.0133 | 0.369 ± 0.235 | 7.7 ± 2.4 | 0.133 ± 0.0604 | 45 | not significant different from that in mice that received normal saline | 19 | 2.7 | 5 | 47.3 ± 8.7 |
| CCCCCCCCCCCCCCCCCC(=O)OCC(Cl)COP(=O)(O)OC[C@H]1O[C@@H](n2ccc(N)nc2=O)C(F)(F)[C@@H]1O (mixture of isomers) [Compound 12, 2′-2′-difluoro-2′-deoxycytidine 5′(3-stearoyloxy-2-rac-chloropropyl)phosphate] | – | 0.43 ± 0.0524 | 58.7 ± 14.2 | 0.0498 ± 0.0059 | 1.77 ± 0.533 | 76.3 ± 10.5 | 0.245 ± 0.038 | – | – | – | – | – | – |
